Earlier results as cited in patent publication US20130115264A1, “IMPLANTABLE RASAGILINE COMPOSITIONS AND METHODS OF TREATMENT THEREOF” (Endo Pharmaceuticals Solutions Inc., priority 2011, published 2013).
Structures can show the parent of a compound that is named as a salt.

What was measured:
[1] = in vivo
[2] = test system: MAO-B; conditions: ex vivo, brain, liver and intestinal tissues
[3] = oral dosage form

**Q.** What does the source list for `C#CCN[C@@H]1CCc2ccccc21` [rasagiline, R-(+)-N-propargyl-1-aminoindan]?
**A.** half-life [1]: about 3 hours; MAO-B inhibition [2]: potent, irreversible MAO-B selective inhibitor

**Q.** With `C#CCN[C@@H]1CCc2ccccc21` [rasagiline mesylate] as the compound, how does the oral bioavailability [3] read?
**A.** ~35%
